Measured values as given in patent publication US10086039B2, “Lamin A, an activator of longevity/anti-aging SIRT1 protein” (THE UNIVERSITY OF HONG KONG, priority 2012, dated 2018).

Key:
H3K9ac = H3K9ac level in wild-type, SIRT1 null and Lmna null cells (immunoblot, immunofluorescence); assay type: cell-based
Method: Western blotting was performed as described previously (Liu et al., 2005). Relative band intensity was measured by IMAGE J® and normalized to corresponding wild-type or untreated controls as indicated.
In addition to acetyl p53, H3K9ac is another substrate of SIRT1 deacetylase (Wang et al., 2008). This Example further investigates the effects of resveratrol on H3K9ac in the wild-type, SIRT1^−/− or Lmna null cells. […] Anti-H3K9ac immunofluorescence staining further confirmed the lamin A-dependent activation of SIRT1 by resveratrol (FIG. 3G).

Zmpste24−/− MEFs = experiment: SA-β-galactosidase senescence assay in MEFs; assay type: cell-based, mouse; settings: resveratrol-treated vs saline-treated
Method: SA-β-galactosidase assay was performed using a Cellular Senescence Assay Kit (Chemicon International, CA, USA), following the manufacturer's instructions. For MEFs, resveratrol was supplemented in the complete medium at passage 4 and SA-β-galactosidase assay was performed at passage 6. To quantify SA-β-galactosidase staining, the blue-dyed precipitate was extracted with 100 μl DMSO and the absorbance at 415 nm was recorded.

Zmpste24−/− BMSCs = experiment: BMSC colony-forming assay in vitro; assay type: cell-based, mouse
Text: Bone marrow stromal cells were isolated and cultured according to modified protocol (Enumeration and Expansion of Mouse Mesenchymal Progenitor Cells Using MESENCUILT®, Stemcell Technologies, Canada). Briefly, bone marrow cells were flushed out from femurs and tibias with α-MEM (Invitrogen, Carlsbad, Calif., USA) supplemented with 20% FBS, and plated in petri dishes. Non-adherent cells were removed on day 3 and medium was replaced every 3 days. BMSC colonies were fixed with methanol and stained with crystal violet solution on the indicated day. For magnetic enrichment, CD11b-positive population was removed using a MIDIMACS™ magnetic cell sorting kit (Miltenyi Biotec, Bergisch Gladbach, Germany), following the manufacturer's instructions. Colonies containing more than 50 cells were counted. BMSC colony forming efficiency was calculated as number of colonies formed by […] bone marrow nucleated cells.

SIRT1 [1] = molecular target: T1, SIRT1 (Homo sapiens, UniProt Q96EB6); settings: cited from earlier work
T1 sequence (Q96EB6 1-747): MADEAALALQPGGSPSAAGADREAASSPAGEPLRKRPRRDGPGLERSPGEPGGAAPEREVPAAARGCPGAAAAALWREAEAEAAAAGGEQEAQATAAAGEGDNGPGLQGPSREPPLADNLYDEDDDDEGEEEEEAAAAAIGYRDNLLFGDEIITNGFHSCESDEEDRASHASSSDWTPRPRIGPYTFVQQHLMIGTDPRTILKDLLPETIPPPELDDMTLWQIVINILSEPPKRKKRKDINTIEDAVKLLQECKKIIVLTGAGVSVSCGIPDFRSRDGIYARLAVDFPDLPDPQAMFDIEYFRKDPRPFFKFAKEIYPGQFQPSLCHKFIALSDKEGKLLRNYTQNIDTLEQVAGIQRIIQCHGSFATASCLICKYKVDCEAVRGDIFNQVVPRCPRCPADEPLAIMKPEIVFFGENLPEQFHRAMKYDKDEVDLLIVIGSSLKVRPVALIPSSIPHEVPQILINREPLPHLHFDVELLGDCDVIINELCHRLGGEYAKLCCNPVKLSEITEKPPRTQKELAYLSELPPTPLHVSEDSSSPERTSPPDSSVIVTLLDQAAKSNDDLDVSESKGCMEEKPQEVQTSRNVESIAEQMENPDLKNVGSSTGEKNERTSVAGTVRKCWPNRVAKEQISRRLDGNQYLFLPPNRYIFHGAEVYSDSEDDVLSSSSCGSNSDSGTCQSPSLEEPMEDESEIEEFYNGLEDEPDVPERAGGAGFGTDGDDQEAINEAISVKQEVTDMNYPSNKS

AMPK = settings: cited from earlier work
SIRT1 [2] = molecular target: T1, SIRT1; experiment: SIRT1 deacetylation assay on native full-length acetyl FLAG-p53 (Western blotting, anti-acetyl lysine); assay type: biochemical; set-up: purchased Biomol (Hamburg, Germany)
Method: SIRT1 deacetylation assay on fluorophore-conjugated synthetic p53 peptide was performed with SIRT1 Fluorimetric Drug Discovery Kit (Biomol, Hamburg, Germany) according to the manufactory's instruction. Cells were fractionated as described above except that protease inhibitors were NOT included and the nuclear matrix fraction was suspended into the assay buffer provided by the supplier. Different cell fractions or recombinant human lamin A (rhLamin A, Diatheva, Italy) were added in the reaction mix of SIRT1 Fluorimetric Drug Discovery Kit, incubated for 20 min at 37° C., and then the reaction was stopped and fluorescent signal was detected. SIRT1 deacetylase activity on native target was assayed using SIRT1 assay Kit from Sigma (USA). Constructs encoding FLAG-p53 and HA-p300 were co-transfected into HEK293 cells; FLAG-p53 was immunoprecipitated by anti-FLAG M2 Agarose (Sigma) followed by elution with FLAG peptide (Sigma). Purified acetyl FLAG-p53 was incubated with recombinant human SIRT1 (rhSIRT1) and NAD+ for 30 min at 37° C., in the presence or absence of rhLamin A or resveratrol. The acetylation level of FLAG-p53 was determined by Western blotting with pan anti acetyl lysine antibodies.
To further test the effect of rhLamin A on the native target of SIRT1, acetyl p53 was purified by anti-FLAG immunoprecipitation in HEK293 cells ectopically expressing FLAG-p53 and p300, and SIRT1 deacetylation assay was performed as described in Materials and Methods.

In the case of `Oc1ccc(C=Cc2cc(O)cc(O)c2)cc1` [resveratrol], the “effect on level of H3K9ac” value (H3K9ac; Lmna−/− cells) was “completely abrogated”, the “effect on level of H3K9ac” value (H3K9ac; SIRT1−/− cells) was “completely abrogated” and the “level of H3K9ac” value (H3K9ac; wild-type cells) was “downregulated”. For the same molecule, the “β-galactosidase activity (senescence)” value (Zmpste24−/− MEFs) was “no obvious difference”, the “rescue effect on colony-forming capacity” value (Zmpste24−/− BMSCs; Zmpste24−/− BMSCs with SIRT1 knocked down) was “attenuated” and the colony-forming capacity (Zmpste24−/− BMSCs; Zmpste24−/− BMSCs, 2 μM and 10 μM, dose-dependent) was “enhanced the colony-forming capacity”. For the same molecule, the “SIRT1 activation towards full-length native target proteins, including p53 and PGC-1α” value (SIRT1 [1]; Beher 2009, Dai 2010, Pacholec 2010) was “do not confer any SIRT1 activation”, the “SIRT1 activity towards fluorophore-conjugated synthetic peptide (Ac-Arg-His-Lys-LysAc-AMC) rather than the unmodified one” value (SIRT1 [1]; Borra et al., 2005, Kaeberlein et al.) was “specifically enhances” and the “doses activating AMPK independent of SIRT1” value (AMPK; high doses) was at least 50 µM. For the same molecule, the “doses activating AMPK in a SIRT1-dependent manner” value (AMPK; low doses) was at most 25 µM, the “activation of SIRT1 deacetylase activity, native full-length FLAG-p53 as substrate” value (SIRT1 [2]; in the presence of rhLamin A) was “activated SIRT1 in a lamin A dose-dependent manner” and the “activation of SIRT1 deacetylase activity, native full-length FLAG-p53 as substrate” value (SIRT1 [2]; without rhLamin A) was “does not directly activate”.
